Reference: patent US20230406803A1, “TROPOLONE DERIVATIVES AND TAUTOMERS THEREOF FOR IRON REGULATION IN ANIMALS” (Kinesid Therapeutics, Inc, priority 2020, published 2023)

Assays:
[1] = Ligand facilitated Fe(III) efflux from liposomes; assay type: biochemical; set-up: unit not given here; conditions: efflux rate k at 10 μM ligand concentration; ferrozine absorbance 562 nm, 120 min kinetic read
Description: Assay 1: Ligand Facilitated Fe(III) Efflux from Liposomes
Preparation of POPC (1 palmitoyl-2-oleoyl-sn-glycero-3 phosphocholine): Cholesterol Liposomes
A 1M buffer solution of MES and Tris was prepared by dissolving 121.14 grams of Tris base and 213.25 grams of MES hydrate in 500 mL of MilliQ water and adjusted to pH7.0 using an […] HCl solution before bringing the total volume of the solution to 1 L. A 500 mM solution of FeCl3 was prepared by dissolving 0.811 grams of anhydrous FeCl3 in 10 mL of a 0.1M H2SO4 aqueous solution. Inside buffer is prepared in a 50 mL falcon tube, which was added with 25 mL of MilliQ water, 1.61 g of sodium citrate, 1.5 mL of the above FeCl3 solution, and 2.5 mL of the 1M MES/Tris HCl buffer (pH=7.0), and finally additional MilliQ H2O to bring to a 50 mL final volume.
Lipid solution is prepared by dissolving 206.9 mg of POPC (1-palmitoyl-2-oleoyl-sn-glycero-3-phosphocholine) and 8.6 mg of cholesterol in 10 mL of ethanol.
The lipids solution and the inside buffer solution are independently loaded into 10 mL luer lock syringes for loading into a virgin cartridge on a Precision Nanosystems NanoAssembler to prepare unilamaller liposomes with the following parameters: 7.5 mL total volume, 1.5:1 mixing ratio of inside buffer:lipids solution, 8 mL/min flow rate, ambient temperature, 0.35 mL start waste, and 0.05 mL of end waste. 7.5 mL of liposomes is harvested for purification on a 6-inch long, 1-inch diameter Sephadex G-50 column wetted in 600 mM sodium ascorbate and 50 mM MES/Tris HCl pH 7.0 buffer. This buffer also serves as the column running buffer. The crude liposome solution is carefully loaded with minimal volume of running buffer above the top of the Sphadex, allowed to enter the matrix, and the column is run with the continued addition of running buffer. The eluting liposomes, observed as a milky and turbid solution, are collected until free iron begins to elute (observed as a deep purple color) and the fractions are pooled for phosphorus quantitation.
Determination of Phosphorus Content:
Phosphorus content of eluted liposomes was determined by the process outlined below. 10 μL of liposome elution and a running buffer blank are added to a 5 mL glass vial containing 450 μL of a 8.9 M aqueous H2SO4 solution, the mixture is heated to 225° C. for 25 minutes in an aluminum heat block to hydrolyze POPC and cooled for 5 minutes. 200 μL of a 30% hydrogen peroxide aqueous solution is added to each vial and heated to 225° C. for 25 minutes. After cooling, the phosphorus content was determined using an Abcam Phosphate Assay kit, with buffer subtracted phosphorus levels determined against a standard curve of phosphate included in the kit. Liposomes were diluted to 1 mM phosphate in Running Buffer for use in assays after accounting for dilutions made during phospholipid digestion.
Determination of the Iron Transporting Rate Constant of the Ligands:
Determination of the rate at which a small molecule ligand liberates (transport) Ferric iron from liposomes is performed in clear bottom black 384-well plates on a Spectramax i3x set to read the absorbance at 562 nm in the kinetic mode every 60 seconds for 120 minutes. 1 μL of serially diluted DMSO stock solution of a small molecule ligand is added to wells in triplicate to give the final concentrations of 40, 20, 10, 5, 2.5, and 1.25 uM of the ligand at 80 μL final volume, followed by addition of 1 μL of 100 mM Ferrozine in water to give a final concentration of 1 mM ferrozine. 78 μL of liposomes diluted to 1 mM phosphorus in running buffer is added to wells as quickly as possible (using a digital repeater multichannel pipette) with the kinetic read initiated as rapidly as possible after addition of liposomes to all wells. Typically, eight compounds at six concentrations are tested in triplicate simultaneously. […]

[2] = system: DMT1-deficient Caco-2 cells; test: shDMT1-Caco2 55Fe transport assay; assay type: cell-based; conditions: Caco-2
Text: Assay 2: shDMT1-Caco2 ^55Fe Transport Assay to Assess Ligand Ability in Transporting Fe (III)
Cells: DMT1-deficient Caco-2 cells (alias: “shDMT1,” or “4A” cells) were from Grillo et al. Science, 2017, and were cryopreserved in liquid nitrogen prior to use.
Reagents and supplies: ^55FeCl3 was obtained from PerkinElmer (Boston, MA). Iron(III) chloride (FeCl3) hexahydrate was obtained from Sigma. Dulbecco's Modified Eagle Medium (DMEM), fetal bovine serum (FBS), L-glutamine, MEM nonessential amino acids, penicillin-streptomycin, G418, formic acid, methanol, high-purity water, ammonium formate, dimethyl sulfoxide (DMSO) were purchased from Fisher Scientific. Propranolol, atenolol and carbutamide were obtained from Sigma-Aldrich Chemical Company (St Louis, MO). Scintillation cocktail was obtained from Research Product International Co. (Mount Prospect, IL). Stericup filter system (PES membrane, 0.22 um pore size) was purchased from Fisher Scientific. Corning item #3378 24-well transwell insert plates.
Test articles: known compounds hinokitiol and deferiprone were purchased from Sigma. They are tested side by side with the small molecule ligands disclosed in this application. DMSO stocks (10 mM, which is 1,000× of the 10 μM dose level) of hinokitiol or test articles were prepared. A stock solution of 25 mM deferiprone in DMSO was prepared. The DMSO stock solutions were stored at −20° C. or below when not in use.
The growth medium was prepared according to the following table
Apical media (serum free DMEM, 10 mM MES, pH 6.5) was prepared. Apical master mix media was prepared fresh with the addition of 200 nM ^55Fe before each experiment. For the negative control propranolol and atenolol wells, 200 nM of non-radioactive iron was used.
The basolateral media was serum-free DMEM, 10 mM HEPES, 2% bovine serum albumin (BSA), pH 7.4.
For each experiment, cells were seeded into the 24-well transwell plates (0.5 mL of 50,000 cells/mL) with growth media. The basolateral companion plate was loaded with 1 mL of growth media. After 12-24 hr, both the apical and basolateral chamber were replaced with growth media. The apical media was changed 3× per week for 21-28 days, including a media change exactly 48 hr before the assay date.
On the assay day, the TEER values were measured and the average TEER value was obtained. Individual wells with TEER value >35% lower than the average of all wells were excluded. For the qualified wells, the apical layer (twice) and basolaterial (once) chambers were washed with PBS. The basolateral companion plate was then filled with 1 mL of basolateral media. Via addition down the side-wall of the apical well, 300 μL per well of the apical assay master mix, with the indicated dose level of test article, was added. Each dose was tested in triplicate. The plates were incubated (5% CO2 and 90% humidity at 37° C.) for the indicated timepoints. At each indicated timepoint, the basolateral supernatant was gently mixed via pipetting, and 200 μL of the basolateral supernatant was transferred to scintillation vials. To each scintillation counting vial, 5 mL of scintillation cocktail fluid was added. For each scintillation vial, the radioactivity (CPM) was determined with liquid scintillation counter LS6500. The counting time per vial was 5 min.
All raw CPM values are divided by the average value of blank DMSO solution to give a fold of change above the DMSO value. The mean and standard deviation of each compound at each concentration level and at each time point measured was calculated to give the fold change (fc) value. For rank order compounds, the fc value of a ligand at 4 h time point is further divided by the fold change (fc) value of hinokitiol (a positive control compound) at an equimolar concentration to arrive at the FC (normalized fold of change) value. Data reported in Tables 1 and 2 is 4 hr time point FC=fc-ligand @ 3 uM/fc-hino @ 3 μM, and FC hino=1.

Compound	Caco2 shDMT1 transport FC @ 3 μM, 4 h [2]	Liposome Fe transport kefflux at 10 μM [1]
O=c1ccc(C2CC3CCC(C2)O3)ccc1O (stereo not drawn)	0.01-0.5	0.1-5
O=c1ccc(C2CCOCC2)ccc1O	0.01-0.5	0.1-5
O=c1ccccc(C2CCCCO2)c1O (stereo not drawn)	1-5	0.1-5
Cc1c(C2CC2)cccc(=O)c1[O-].[Na+]	0.5-1	0.1-5
Cc1ccc(F)c(=O)c([O-])c1.[Na+]	0.01-0.5	0.1-5
O=c1c(F)cccc(C2CCCO2)c1O (stereo not drawn)	0.01-0.5	5-7.5
Cc1ccc(C(F)(F)F)c(=O)c(O)c1	0.01-0.5	7.5-10
CC(C)c1ccc(C(F)(F)F)c(=O)c(O)c1	0.01-0.5	5-7.5
Cc1ccc(O)c(=O)c(C(F)(F)F)c1	0.01-0.5	10-25
O=c1ccccc(C2CCCO2)c1O (stereo not drawn)	1-5	10-25
O=c1ccccc([C@H]2CCCO2)c1O	0.1-5	7.5-10
O=c1ccccc([C@@H]2CCCO2)c1O	0.1-5	7.5-10
O=c1ccc(C2CCCO2)ccc1O (stereo not drawn)	0.01-0.5	7.5-10
O=c1ccc(C2CC3CC3C2)ccc1O (stereo not drawn)	0.01-0.5	5-7.5
O=c1ccc([C@@H]2CCC[C@H]2O)ccc1O	0.01-0.5	7.5-10
CC(=O)N1CCC(c2ccc(O)c(=O)cc2)CC1	0.01-0.5	5-7.5
O=c1ccccc(C2CCCO2)c1S (stereo not drawn)	0.01-0.5	7.5-10

More lines, main results first:

Caco2 shDMT1 transport FC @ 3 μM, 4 h [2]	Compound	Liposome Fe transport kefflux at 10 μM [1]
0.01-0.5	O=c1c(O)ccccc1F	0.1-5
0.01-0.5	O=c1cccc(C2CCOCC2)cc1O	10-25
1-5	O=c1ccc(OC2CCC2)ccc1O	10-25
0.01-0.5	CC(C)Oc1ccc(O)c(=O)cc1	7.5-10
0.01-0.5	CCOc1ccc(O)c(=O)cc1	7.5-10
0.5-1	CC(C)Oc1cccc(=O)c(O)c1	5-7.5
0.01-0.5	COc1cccc(=O)c(O)c1	5-7.5
0.5-1	CCOc1cccc(=O)c(O)c1	5-7.5
1-5	Cc1cccc(C)c(=O)c1O	10-25
1-5	Cc1ccc(O)c(=O)c(C)c1	5-7.5
1-5	Cc1ccc(C)c(=O)c(O)c1	0.1-5
0.5-1	Cc1ccc(C2CC2)cc(O)c1=O	7.5-10
1-5	Cc1cc(C2CC2)ccc(O)c1=O	0.1-5
1-5	CCc1ccc(O)c(=O)c(C)c1	5-7.5
0.5-1	CCc1ccc(C)c(=O)c(O)c1	5-7.5
0.5-1	Cc1ccc(C(C)C)cc(O)c1=O	0.1-5
0.01-0.5	O=c1cccc(C2CCCO2)cc1O (stereo not drawn)	7.5-10
0.01-0.5	CC1(C)CCC(c2cccc(=O)c(O)c2)C1 (stereo not drawn)	5-7.5
0.01-0.5	O=c1ccc(C2CCC2)ccc1O	10-25
0.01-0.5	CCOC(=O)N1CCC(c2ccc(O)c(=O)cc2)CC1	5-7.5
0.01-0.5	O=c1ccccc(C2CCOC2)c1O (stereo not drawn)	<0.1
0.01-0.5	O=c1cccc(OC2COC2)cc1O	0.1-5
0.01-0.5	Cc1ccc(O)c(=O)c(F)c1	0.1-5
0.01-0.5	CCc1cccc(F)c(=O)c1O	10-25
0.5-1	O=c1ccc(OC2CC2)ccc1O	10-25
